Converted amounts (≈) assume the structure as drawn. Where two headings read alike, the source gives them in different places. Marks after values point to notes of the source that are not given here.
What was measured:
[1] = Beagle, in vivo, po; for Dog F % (suspension): pH 2
physchem = conditions: 25 °C, thermodynamic from solid
[2] = 0.1N HCL, 1.0% DMSO, 24-hour incubation at ambient temperature, maximum theoretical compound concentration 100 μM
[3] = 1×PBS buffer (pH 7.4), 1.0% DMSO, 24-hour incubation at ambient temperature, maximum theoretical compound concentration 100 μM

Row | SMILES | pH 2 solubility (pH 2) | pH 7 solubility (pH 7.4) | solubility (physchem; fassif) | further results
1 | CC(C)(C#Cc1ccc(-c2ccc(Cl)c3c(N(C(=O)/C=C/C(=O)N(CCC(=O)O)[C@@H](CC(=O)O)C(=O)O)S(C)(=O)=O)nn(CC(F)(F)F)c23)c([C@H](Cc2cc(F)cc(F)c2)NC(=O)Cn2nc(C(F)(F)F)c3c2C(F)(F)[C@@H]2C[C@H]32)n1)S(C)(=O)=O [Compound 3, N-(2-carboxyethyl)-N—((E)-4-(N-(4-chloro-7-(2-((S)-1-(2-((3bS,4aR)-5,5-difluoro-3-(trifluoromethyl)-3b,4,4a,5-tetrahydro-111-cyclopropa[3,4]cyclopenta[1,2-c]pyrazol-1-yl)acetamido)-2-(3,5-difluorophenyl)ethyl)-6-(3-methyl-3-(methylsulfonyl)but-1-yn-1-yl)pyridin-3-yl)-1-(2,2,2-trifluoroethyl)-1H-indazol-3-yl)methylsulfonamido)-4-oxobut-2-enoyl)-L-aspartic acid] |  |  |  | Dog F % (suspension) [1]: 10%
2 | CC(C)(C#Cc1ccc(-c2ccc(Cl)c3c(N(C(=O)CCCN(C(=O)OCOP(=O)(O)O)[C@H](C(=O)O)c4ccccc4)S(C)(=O)=O)nn(CC(F)(F)F)c23)c([C@H](Cc2cc(F)cc(F)c2)NC(=O)Cn2nc(C(F)(F)F)c3c2C(F)(F)[C@@H]2C[C@H]32)n1)S(C)(=O)=O [Compound 40] |  |  |  | pH 2 solubility [2]: 1 μM; pH 7 solubility [3]: 100 μM; Dog F % (suspension) [1]: 5%
3 | Cc1cc(P(=O)(O)O)cc(OP(=O)(O)O)c1C(C)(C)CC(=O)N(c1nn(CC(F)(F)F)c2c(-c3ccc(C#CC(C)(C)S(C)(=O)=O)nc3[C@H](Cc3cc(F)cc(F)c3)NC(=O)Cn3nc(C(F)(F)F)c4c3C(F)(F)[C@@H]3C[C@H]43)ccc(Cl)c12)S(C)(=O)=O [Compound 57, (4-(4-(N-(4-Chloro-7-(2-((S)-1-(2-((3bS,4aR)-5,5-difluoro-3-(trifluoromethyl)-3b,4,4a,5-tetrahydro-111-cyclopropa[3,4]cyclopenta[1,2-c]pyrazol-1-yl)acetamido)-2-(3,5-difluorophenyl)ethyl)-6-(3-methyl-3-(methylsulfonyl)but-1-yn-1-yl)pyridin-3-yl)-1-(2,2,2-trifluoroethyl)-1H-indazol-3-yl)methylsulfonamido)-2-methyl-4-oxobutan-2-yl)-3-methyl-5-(phosphonooxy)phenyl)phosphonic acid] | 1/100 μM | 1/100 μM | 7300 µg/mL (≈ 5540 µM) | 
4 | Cc1cc(CC(=O)N[C@@H](CC(=O)O)C(=O)O)c(C(C)(C)CC(=O)N(c2nn(CC(F)(F)F)c3c(-c4ccc(C#CC(C)(C)S(C)(=O)=O)nc4[C@H](Cc4cc(F)cc(F)c4)NC(=O)Cn4nc(C(F)(F)F)c5c4C(F)(F)[C@@H]4C[C@H]54)ccc(Cl)c23)S(C)(=O)=O)c(OP(=O)(O)O)c1 [Compound 59, (2-(2-(4-(N-(4-chloro-7-(2-((S)-1-(2-((3bS,4aR)-5,5-difluoro-3-(trifluoromethyl)-3b,4,4a,5-tetrahydro-1H-cyclopropa[3,4]cyclopenta[1,2-c]pyrazolyl)acetamido)-2-(3,5-difluorophenyl)ethyl)-6-(3-methyl-3-(methylsulfonyl)but-1-ynyl)pyridin-3-yl)-1-(2,2,2-trifluoroethyl)-1H-indazol-3-yl)methylsulfonamido)-2-methyloxobutan-2-yl)-5-methyl-3-(phosphonooxy)phenyl)acetyl)-L-aspartic acid] |  |  |  | Dog F % (solution) [1]: 27 ^c %
5 | Cc1cc(C(=O)NCP(=O)(O)O)cc(OP(=O)(O)O)c1C(C)(C)CC(=O)N(c1nn(CC(F)(F)F)c2c(-c3ccc(C#CC(C)(C)S(C)(=O)=O)nc3[C@H](Cc3cc(F)cc(F)c3)NC(=O)Cn3nc(C(F)(F)F)c4c3C(F)(F)[C@@H]3C[C@H]43)ccc(Cl)c12)S(C)(=O)=O [Compound 60, ((4-(4-(N-(4-chloro-7-(2-((S)-1-(2-((3bS,4aR)-5,5-difluoro-3-(trifluoromethyl)-3b,4,4a,5-tetrahydro-1H-cyclopropa[3,4]cyclopenta[1,2-c]pyrazol-1-yl)acetamido)-2-(3,5-difluorophenyl)ethyl)-6-(3-methyl-3-(methylsulfonyl)but-1-yn-1-yl)pyridin-3-yl)-1-(2,2,2-trifluoroethyl)-1H-indazol-3-yl)methylsulfonamido)-2-methyl-4-oxobutan-2-yl)-3-methyl-5-(phosphonooxy)benzamido)methyl)phosphonic acid] | 1/64 μM | 1/64 μM | > 10000 µg/mL | 
6 | Cc1cc(CC(=O)NCP(=O)(O)O)c(C(C)(C)CC(=O)N(c2nn(CC(F)(F)F)c3c(-c4ccc(C#CC(C)(C)S(C)(=O)=O)nc4[C@H](Cc4cc(F)cc(F)c4)NC(=O)Cn4nc(C(F)(F)F)c5c4C(F)(F)[C@@H]4C[C@H]54)ccc(Cl)c23)S(C)(=O)=O)c(OP(=O)(O)O)c1 [Compound 61, ((2-(2-(4-(N-(4-chloro-7-(2-((S)-1-(2-((3bS,4aR)-5,5-difluoro-3-(trifluoromethyl)-3b,4,4a,5-tetrahydro-1H-cyclopropa[3,4]cyclopenta[1,2-c]pyrazol-1-yl)acetamido)-2-(3,5-difluorophenyl)ethyl)-6-(3-methyl-3-(methylsulfonyl)but-1-yn-1-yl)pyridin-3-yl)-1-(2,2,2-trifluoroethyl)-1H-indazol-3-yl)methylsulfonamido)-2-methyl-4-oxobutan-2-yl)-5-methyl-3-(phosphonooxy)phenyl)acetamido)methyl)phosphonic acid] | 2/70 μM | 2/70 μM | > 10000 µg/mL | 
7 | Cc1cc(C(=O)N[C@@H](CC(=O)O)C(=O)O)cc(OP(=O)(O)O)c1C(C)(C)CC(=O)N(c1nn(CC(F)(F)F)c2c(-c3ccc(C#CC(C)(C)S(C)(=O)=O)nc3[C@H](Cc3cc(F)cc(F)c3)NC(=O)Cn3nc(C(F)(F)F)c4c3C(F)(F)[C@@H]3C[C@H]43)ccc(Cl)c12)S(C)(=O)=O [Compound 65, (4-(4-(N-(4-chloro-7-(2-((S)-1-(2-((3bS,4aR)-5,5-difluoro-3-(trifluoromethyl)-3b,4,4a,5-tetrahydro-1H-cyclopropa[3,4]cyclopenta[1,2-c]pyrazol-1-yl)acetamido)-2-(3,5-difluorophenyl)ethyl)-6-(3-methyl-3-(methylsulfonyl)but-1-yn-1-yl)pyridin-3-yl)-1-(2,2,2-trifluoroethyl)-1H-indazol-3-yl)methylsulfonamido)-2-methyl-4-oxobutan-2-yl)-3-methyl-5-(phosphonooxy)benzoyl)-L-aspartic acid] | 7/68 μM | 7/68 μM | 1100 µg/mL (≈ 787 µM) | 
8 | CC(C)(C#Cc1ccc(-c2ccc(Cl)c3c(NS(C)(=O)=O)nn(CC(F)(F)F)c23)c([C@H](Cc2cc(F)cc(F)c2)NC(=O)Cn2nc(C(F)(F)F)c3c2C(F)(F)[C@@H]2C[C@H]32)n1)S(C)(=O)=O [Intermediate 5, N—((S)-1-(3-(4-chloro-3-(methylsulfonamido)-1-(2,2,2-trifluoroethyl)-1H-indazol-7-yl)-6-(3-methyl-3-(methylsulfonyl)but-1-yn-1-yl)pyridin-2-yl)-2-(3,5-difluorophenyl)ethyl)-2-((3bS,4aR)-5,5-difluoro-3-(trifluoromethyl)-3b,4,4a,5-tetrahydro-1H-cyclopropa[3,4]cyclopenta[1,2-c]pyrazol-1-yl)acetamide, reference compound] |  |  |  | pH 2 solubility [2]: 0.11 μM; pH 7 solubility [3]: 0.32 μM; solubility (physchem; fasted state simulated intestinal fluid (FaSSIF), fassif): 4 µg/mL (≈ 4.13 µM); solubility (physchem; fed state simulated intestinal fluid (FeSSIF), fessif): 4.2 µg/mL (≈ 4.34 µM)
